Measurements reported in US20230346734A1, “COMBINATION THERAPY OF ATRA OR OTHER RETINOIDS WITH IMMUNOTHERAPEUTIC AGENTS BINDING TO BCMA” (JULIUS-MAXIMILIANS-UNIVERSITÄT WÜRZBURG, priority 2020, published 2023).

What was measured:
[1] = test system: BCMA CD4+ and CD8+ CAR T-cells; test: Viability of BCMA-CAR T-cells after incubation with ATRA; assay type: cell-based, human; settings: increasing doses of ATRA, 72 hours; 7-AAD- T cells
Protocol: Viability of BCMA CD4+ and CD8+ CAR T-cells after incubation with increasing doses of ATRA for 72 hours determined by flow cytometry. […] Data are presented as mean values+SD (n=3).

BCMA expression on MM.1S [2] = test: BCMA expression on MM.1S by flow cytometry after ATRA treatment; assay type: cell-based, human
Protocol: (§1) Flow cytometric analysis of BCMA-expression on MM.1S, OPM-2 and NCI-H929 cell lines that had been cultured in the absence or presence of 50 nM ATRA for 72 hours. […] 7-AAD was used to exclude dead cells from analysis.

BCMA expression on MM.1S [3] = test: BCMA expression on MM.1S from bone marrow of ATRA-treated NSG mice; assay type: in vivo; settings: NSG/MM1.S; ATRA 30 mg/kg i.p. every day, 4 days; P=0.002
Protocol: NSG mice were inoculated with MM.1S cells. After twelve days, mice were i.p. injected with 30 mg/kg ATRA for 4 days. BCMA-expression on MM.1S cells obtained from bone marrow of untreated and ATRA-treated mice was analysed by flow cytometry.
The University of Wurzburg Institutional Animal Care and Use Committee approved all mouse experiments. Six- to eight-week old female NSG (NOD-scid IL2rynull) mice were obtained from Charles River and inoculated by tail vein injection with 2×10^6 MM.1S/ffluc_GFP at day 0 and randomly allocated to ATRA-treatment and control group. ATRA (Sigma Aldrich, Darmstadt, Germany) was formulated in corn oil and administered by intraperitoneal (i.p) injection (30 mg/kg) for four days, starting twelve days after tumor inoculation.
This encouraged experiments in a murine xenograft model of myeloma (NSG/MM1.S). In a first set of experiments, n=6 mice were inoculated with MM1.S cells (2×10^6 cells given i.v. by tail vein injection) for 12 days to establish systemic myeloma, and then administered a 4-day treatment course with either ATRA (n=3 mice; 30 mg/kg given i.p. every day) or solvent control (n=3 mice). The following day, mice were sacrificed, MM.1S myeloma cells were isolated from bone marrow and BCMA expression analyzed by flow cytometry. […] The in vivo upregulation of BCMA after GSI treatment was shown by Pont et. al. in 2019^40.

MM.1S myeloma cells = test: Cytolytic activity of CD8+ BCMA-CAR T-cells against pretreated MM.1S, bioluminescence-based assay; assay type: cell-based, human; settings: MM.1S pretreated 72 hours with 100 nM ATRA and/or 0.01 uM GSI; 4 h co-incubation
Protocol: Myeloma cell lines were incubated with 100 nM ATRA and/or 0.01 uM GSI for 72 hours or were left untreated. Cytolytic activity of CD8^+ BCMA-CAR T-cells was determined in a bioluminescence-based assay after 4 h of co-incubation with target cells. Assay was performed in triplicate wells with 5,000 target cells per well. Data are presented as mean values+SD of n=4 independent experiments.
(§2) Cytolytic activity was analyzed in a bioluminescence-based assay using firefly-luciferase (ffluc)-transduced target cells. Proliferation was measured by dilution of CFSE proliferation dye by flow cytometry. Therefore, CFSE-labeled CAR T-cells were incubated with target cells for 72 h at a 4:1 effector to target cell ratio. IFNγ and IL-2 were measured by ELISA (Biolegend, Koblenz, Germany) in supernatants obtained after a 20 hour co-culture of T-cells with target cells (effector:target ratio=4:1).

BCMA RNA levels in OPM-2 = BCMA RNA levels in OPM-2 by qRT-PCR; assay type: cell-based, human; settings: 50 nM ATRA, 48 hours, qPCR
Protocol: (§3) BCMA RNA levels in MM.1S (n=4) and OPM-2 (n=3) by quantitative reverse transcription PCR (qRT-PCR) assay was quantified after incubation with increasing doses of ATRA for 48 hours. Depicted are mean values+SD.
(§4) Total RNAs were extracted with RNeasy Mini Kit (Qiagen, Hilden, Germany) according to the manufacturer's protocol. Reverse transcription-quantitative polymerase chain reaction (RT-qPCR) analysis of BCMA was performed with 1 μg of total RNA and SuperScript™ II Reverse Transcriptase (Thermo Fisher Scientific, Inc Massachusetts). The quality and integrity of the RNA was verified by a Bioanalyzer 2100 (Agilent Technologies, Santa Clara, CA). The primer sequences used were as follows: BCMA forward primer, 5′-TGTTCTTCTAATACTCCTCCTCT-3′ (SEQ ID NO: 25) and reverse primer, 5′-AACTCGTCCTTTAATGGTTC-3′ (SEQ ID NO: 26). […] RT-qPCR was performed in a 7900HT Real-time PCR System (Thermo Fisher Scientific, Inc Massachusetts) using Quantitec SYBR green Kit (Qiagen, Hilden, Germany) in a 7900 HT Fast Real Time PCR System (Applied Biosystems, Foster City, CA). […] The threshold cycle for each sample was selected from the linear range and converted to a starting quantity by interpolation from a standard curve generated on the same plate for each set of primers. […]

BCMA expression on OPM-2 = BCMA expression on OPM-2 by flow cytometry after ATRA treatment; assay type: cell-based, human
Protocol: as §1

[4] = test system: BCMA-CAR T-cells co-incubated with MM.1S; test: Proliferation of CFSE-labeled BCMA-CAR T-cells after stimulation with pretreated MM.1S; assay type: cell-based, human; settings: MM.1S pretreated 72 hours with 100 nM ATRA and/or 0.01 uM GSI; CFSE after three days
Protocol: MM.1S were incubated with 100 nM ATRA and/or 0.01 uM GSI for 72 hours or were left untreated. Afterwards, CFSE-labeled BCMA-CAR T-cells were co-incubated with these target cells. Proliferative capacity of BCMA-CAR T-cells was determined after three days by measuring the reduction of CFSE-labeling in effector cells. Data are presented as mean values+SD of n=3 independent experiments.
as §2

[5] = test system: BCMA surface molecules on MM.1S cells; test: BCMA molecule distribution on MM.1S cells by dSTORM; assay type: cell-based, human; settings: vs untreated
Excerpt: Representative photographs of BCMA molecule distribution on untreated and ATRA-treated MM.1S cells visualized by direct stochastic optical reconstruction microscopy (dSTORM).

[6] = test system: EGFRt_BCMA-CAR transgene expression of BCMA CD4+ and CD8+ CAR T-cells; test: EGFRt_BCMA-CAR transgene expression of BCMA-CAR T-cells after incubation with ATRA; assay type: cell-based, human; settings: increasing doses of ATRA, 72 hours; EGFRt+ T cells
Protocol: EGFRt_BCMA-CAR transgene expression of BCMA CD4+ and CD8+ CAR T-cells after incubation with increasing doses of ATRA for 72 hours determined by flow cytometry. […] Data are presented as mean values+SD (n=3).

BCMA RNA levels in MM.1S = BCMA RNA levels in MM.1S by qRT-PCR; assay type: cell-based, human; settings: 50 nM ATRA, 48 hours, qPCR
Protocol: as §3, §4

[7] = test system: BCMA expression on primary myeloma cells; test: BCMA expression on primary myeloma cells by flow cytometry after ATRA treatment
[8] = test system: BCMA-CAR T-cells co-incubated with MM.1S; test: Cytokine release of BCMA-CAR T-cells after stimulation with pretreated MM.1S, ELISA; assay type: cell-based, human; settings: MM.1S pretreated 72 hours with 100 nM ATRA and/or 0.01 uM GSI, 20 hours co-incubation
Protocol: MM.1S were incubated with 100 nM ATRA and/or 0.01 uM GSI for 72 hours or were left untreated. Afterwards, BCMA-CAR T-cells were co-incubated with these target cells for 20 hours. Cytokine release of BCMA-CAR T-cells was determined in the supernatant by ELISA. Assay was performed in triplicate wells. Data are presented as mean values+SD of n=3 independent experiments.
as §2

[9] = test system: BCMA expression on NCI-H929; test: BCMA expression on NCI-H929 by flow cytometry after ATRA treatment
[10] = deltaMFI at baseline normalized to 1, 72 hours

CC1=C(/C=C/C(C)=C/C=C/C(C)=C/C(=O)O)C(C)(C)CCC1 [ATRA, all-trans retinoic acid]
effect on viability of BCMA-CAR T-cells [1]: no negative effect | time for BCMA expression to return to baseline levels upon discontinuation of ATRA treatment (BCMA expression on MM.1S [2]): ≤ 72 h | BCMA expression when ATRA treatment was recommenced (BCMA expression on MM.1S [2]; 72 hours after re-exposition): increased again with the same amplitude | BCMA expression, deltaMFI (BCMA expression on MM.1S [2]; ATRA (50 nM per FIG. 1) for 72 hours, untreated deltaMFI 1,098): 2,709 | relative increase in BCMA expression after ATRA treatment (BCMA expression on MM.1S [2]; [10]): 1.9 fold | BCMA expression on MM.1S myeloma cells from bone marrow vs control mice (BCMA expression on MM.1S [3]): Significantly higher BCMA expression | cytolytic activity of BCMA-CAR T-cells against pretreated vs non-treated target cells (MM.1S myeloma cells): superior cytolysis | relative increase in BCMA transcripts (BCMA RNA levels in OPM-2): 2.1 fold | time for BCMA expression to return to baseline levels upon discontinuation of ATRA treatment (BCMA expression on OPM-2): ≤ 72 h | BCMA expression when ATRA treatment was recommenced (BCMA expression on OPM-2; 72 hours after re-exposition): increased again with the same amplitude | BCMA expression, deltaMFI (BCMA expression on OPM-2; ATRA (50 nM per FIG. 1) for 72 hours, untreated deltaMFI 3,558): 7,358 | relative increase in BCMA expression after ATRA treatment (BCMA expression on OPM-2; [10]): 1.9 fold | proliferative capacity of BCMA-CAR T-cells [4]: enhanced proliferative capacity | BCMA surface molecules by dSTORM after ATRA treatment [5]: increase of BCMA surface molecules | effect on expression of the EGFRt_BCMA-CAR transgene [6]: did not diminish | relative increase in BCMA transcripts (BCMA RNA levels in MM.1S): 1.8 fold | BCMA expression once exposure to ATRA was discontinued ([7]; 100 nM ATRA, 24 hours after removal): declined to baseline levels | increase in deltaMFI for BCMA expression, average ([7]; 100 nM ATRA, 72 hours): 1.6 × | BCMA expression upon re-exposure to ATRA ([7]; 72 hours after re-exposition): increased again | BCMA expression by flow cytometry after ATRA ([7]; n=5 patients, 72 hours, 100 nM P=0.04, 50 nM P=0.006, 25 nM P=0.04): significant increase | cytokine release of BCMA-CAR T-cells [8]: enhanced | time for BCMA expression to return to baseline levels upon discontinuation of ATRA treatment [9]: ≤ 72 h | BCMA expression when ATRA treatment was recommenced ([9]; 72 hours after re-exposition): increased again with the same amplitude | BCMA expression, deltaMFI ([9]; ATRA (50 nM per FIG. 1) for 72 hours, untreated deltaMFI 9,883): 13,891 | relative increase in BCMA expression after ATRA treatment [9, 10]: 1.7 fold
